Assay results as given in patent US20070270429A1, “Function Inhibitor of Effector Cell” (priority 2003, published 2007).

System: human CD8-positive memory T cell
Assay: Cell growth inhibition test of human CD8-positive memory T cell (anti-CD3 antibody stimulation, BrdU uptake)
Type: cell-based
Settings: 48 hours
Description: A heparinized blood sample was collected from a human, healthy volunteer, and peripheral blood mononuclear cell (PBMC) was isolated by a density gradient centrifugation. Specifically, a blood sample (33 ml) 2-fold diluted with physiological saline was overlaid on a medium for hemocyte separation use (10 ml) having a specific gravity of 1.077±0.001 g/ml contained in a centrifugation tube (LymphoPrep tube (Nycomed Pharma)) and centrifuged (3000×g, 10 minutes) at room temperature. The layer containing PBMC was recovered and washed twice with PBS to isolate PBMC.
CD8-positive T cell was isolated from PBMC by a negative selection method using Human T Cell CD8 Subset Column Kit (R & D Systems, Inc). Specifically, the cells to be removed such as B cell, CD4-positive T cell, and monocyte were labeled with antibodies by adding an antibody cocktail (1 ml) (attached to the kit) to PBMC (up to 2×10^8 cells) and incubating at room temperature for 15 minutes. The cells were washed twice with a column buffer (10 ml) (attached to the kit) and suspended in said column buffer (2 ml). The cell suspension was added to Human T Cell Subset Enrichment Column (attached to the kit) which had been equilibrated in advance using the column buffer (10 ml). By eluting with the column buffer (10 ml) after incubation at room temperature for 10 minutes, the CD8-positive T cell was obtained.
CD8-positive naive T cell and CD8-positive memory T cell were obtained by fractionating the CD8-positive T cell obtained by the above-described method using VarioMACS (Miltenyl Biotec). Specifically, a marker of naive T cell, CD45RA antigen, was labeled with antibody magnetic beads by adding 20 μl of CD45RA MicroBeads (Miltenyl Biotec) to 1×10^7 cells of the CD8-positive T cell, mixing them and incubating at 6 to 12° C. for 15 minutes. The cells were washed once with MACS buffer (PBS containing 2 mM EDTA and 0.5% bovine serum albumin (BSA)) (20 ml) (attached to the kit) and re-suspended in MACS buffer (0.5 ml). The cell suspension was added to an MS column (Miltenyl Biotec) which had been set to VarioMACS and equilibrated with MACS buffer (0.5 ml) in advance, and further washed with MACS buffer (0.5 ml×3 times). This washing solutions were recovered and used in the following test as the CD45RA-negative cell, namely CD8-positive memory T cell. Also, since the CD45RA-positive cell can be recovered by taking off the MS column from VarioMACS and eluting it with MACS buffer (1.5 ml), this was used in the following test as the CD8-positive naive T cell.
The cells fractionated by the method described in the above-described (2-1) were inoculated into a 96 well plate coated with an anti-human CD3 antibody, at a cell density of 2×10^5 cells/200 μl/well. The anti-human CD3 antibody-coated 96 well plate used herein was prepared by coating it with an anti-human CD3 antibody OKT-3 (0.1 μg/ml) overnight at 4° C. The cells were cultured for 48 hours in a CO2 incubator (5% CO2, humidity 95%) kept at 37° C. The cell growth was measured using Cell Proliferation ELISA, BrdU (Colorimetric) (Roche), using uptake of 5-bromo-2-deoxyuridine (BrdU) as the index. The operation method is shown below.
After treating the cells with BrdU for a predetermined period of time, the plate was centrifuged (300×g, 10 minutes), and then turned upside down and lightly shaken to remove the labeled medium. The plate was dried (for about 15 minutes) using a hair dryer. A cell fixing and DNA denaturing solution (200 μl, attached to the kit) was added to each well and left alone for 30 minutes. After removing the cell fixing and DNA denaturing solution and further removing water, a peroxidase-labeled anti-BrdU antibody (anti-BrdU-POD reaction solution) (100 μl) (attached to the kit) was added thereto and left alone at room temperature for 90 minutes. […]

SMILES | inhibition ratio of cell growth (0.01 μM) [%] | inhibition ratio of cell growth (0.1 μM) [%] | inhibition ratio of cell growth (1 μM) [%] | inhibition ratio of cell growth (10 μM) [%]
CCCCN1C(=O)[C@@H]([C@H](O)C2CCCCC2)NC(=O)C12CCN(Cc1ccc(Cc3ccc(C(=O)O)cc3OC)cc1)CC2 [Compound (b), 4-[4-({(3R)-1-butyl-3-[(R)-cyclohexyl(hydroxy)methyl]-2,5-dioxo-1,4,9-triazaspiro[5.5]undec-9-yl}methyl)benzyl]-3-methoxybenzoic acid] | −10.6 | 5.6 | 18.3 | 53.6
CCCCN1C(=O)[C@@H]([C@H](O)C2CCCCC2)NC(=O)C12CCN(Cc1ccc(Oc3ccc(C(=O)O)cc3OCC)cc1)CC2.Cl [Compound (c), 4-[4-({(3R)-1-butyl-3-[(R)-cyclohexyl(hydroxy)methyl]-2,5-dioxo-1,4,9-triazaspiro[5.5]undec-9-yl}methyl)phenoxy]-3-ethoxybenzoic acid hydrochloride] | 9.2 | 13.4 | 18.8 | 39.6
